# Experimental data reported in ChEMBL document CHEMBL3227967, “Quantitative structure-activity relationships in 1-aryl-2-(alkylamino)ethanol antimalarials” (J Med Chem, 1979).
# Tested on: Plasmodium berghei
# Test: Antimalarial activity against Plasmodium berghei
# Format: functional
row,SMILES,log(1/C)
1,CCCCN(CCCC)CC(O)c1cc(C(F)(F)F)nc2c(C(F)(F)F)cccc12 (centres undefined),3.6
2,CCCN(CCC)CC(O)c1cc(C(F)(F)F)nc2c(C(F)(F)F)cccc12 (centres undefined),2.88
3,CCCCCN(CCCCC)CC(O)c1cc(-c2ccccc2)nc2ccccc12 (centres undefined),2.57
4,CCCCCCCN(CCCCCCC)CC(O)c1cc2cc(Cl)ccc2c2cc(C(F)(F)F)ccc12 (centres undefined),3.68
5,CCCCN(CCCC)CC(O)c1cc2ccc(C(C)(C)C)cc2c2cc(C(C)(C)C)ccc12 (centres undefined),3.19
6,CCCCN(CCCC)CCC(O)c1cc(C(F)(F)F)nc2ccc(C(F)(F)F)cc12 (centres undefined),3.31
7,CCCCN(CCCC)CC(O)c1cc2ccsc2c2cc(C(F)(F)F)ccc12 (centres undefined),3.5
8,OC(CC1CCCCN1)c1cc2ccc(C(F)(F)F)cc2c2cc(C(F)(F)F)ccc12 (centres undefined),3.99
9,CCCCN(CCCC)CC(O)c1cc2ccc(C(F)(F)F)cc2c2cc(C)sc12 (centres undefined),2.52
10,CCCCNCCC(O)c1c2ccccc2c(Cl)c2ccccc12 (centres undefined),2.49
11,CCCCN(CCCC)CC(O)c1cc(-c2ccc(OC)cc2)nc2cc(Cl)c(OC)cc12 (centres undefined),3.32
12,CCCCN(CCCC)CC(O)c1cc2ccccc2c2cccc(Cl)c12 (centres undefined),2.32
13,CCCCN(CCCC)CC(O)c1cccc2c1ccc1ccccc12 (centres undefined),2.06
14,CCCCCCN(CCCCCC)CC(O)c1cc(-c2ccc(Cl)cc2)nc2c(Cl)cc(Cl)cc12 (centres undefined),3.37
15,OC(CC1CCCCN1)c1cc2cc(Br)ccc2c2cc(C(F)(F)F)ccc12 (centres undefined),3.96
16,CCCCCCN(CCCCCC)CC(O)c1cc(-c2ccc(Cl)cc2)nc2cc(OC)c(Cl)cc12 (centres undefined),2.8
17,CCCCN(CCCC)CC(O)c1cc2ccc(Cl)cc2c2c(Cl)cc(Cl)cc12 (centres undefined),4.21
18,CCCCN(CCCC)CC(O)c1cc2c(Cl)cc(Cl)cc2c2ncccc12 (centres undefined),2.94
19,CCCCCCCN(CCCCCCC)CC(O)c1cccc2c3ccccc3c3ccccc3c12 (centres undefined),2.28
20,Cc1ccc2c(C(O)CC3CCCCN3)cc3ccc(C(F)(F)F)cc3c2c1 (centres undefined),3.16
21,CCCCN(CCCC)CC(O)c1cc2cc(Cl)ccc2c2cc(Cl)ccc12 (centres undefined),3.81
22,CCCCN(C)CC(O)c1cc(-c2ccc(Cl)cc2)nc(-c2ccc(Cl)cc2)c1 (centres undefined),3.59
23,CCCCN(CCCC)CC(O)c1cc2sccc2c2ccsc12 (centres undefined),2.1

row,SMILES,log(1/C)
1,CN(C)CC(O)c1cc2cc(C(F)(F)F)cc(C(F)(F)F)c2c2ccccc12 (centres undefined),3.94
2,CCCCCN(CCCCC)CC(O)c1cc2cc(Cl)ccc2c2cc(Cl)ccc12 (centres undefined),4.01
3,CCCCN(CCCC)CC(O)c1cc2ccc(Cl)cc2c2cc(C(F)(F)F)ccc12 (centres undefined),3.65
4,CN1CCN(CC(O)c2cc(-c3ccc(Cl)cc3)nc3c(Cl)cc(Cl)cc23)CC1 (centres undefined),3.81
5,CCCCN(CCCC)CC(O)c1cccc2c1ccc1cc(Cl)c(Cl)cc12 (centres undefined),2.96
6,CCCCN(CCCC)CC(O)c1cc(/C=C/c2ccc(Cl)cc2)nc(/C=C/c2ccc(Cl)cc2)c1 (centres undefined),4.18
7,CCCCCCCN(CCCCCCC)CC(O)c1cc2ccccc2c2cc(Cl)ccc12 (centres undefined),2.59
8,CCCCN(CCCC)CC(O)c1ccc(-c2ccc(Cl)cc2)c2c(Cl)cc(Cl)cc12 (centres undefined),3.33
9,CCCNCC(O)c1cc(-c2ccc(C(F)(F)F)cc2)nc(-c2ccc(C(F)(F)F)cc2)c1 (centres undefined),4.03
10,CCCCN(CCCC)CC(O)c1cc(C(C)(C)C)nc2c1cc(C)c1ccccc12 (centres undefined),2.32
11,OC(CC1CCCCN1)c1cc2ccc(Cl)cc2c2cc(C(F)(F)F)ccc12 (centres undefined),4.09
12,OC(CC1CCCCN1)c1cc2ccc(Cl)cc2c2cc(Cl)ccc12 (centres undefined),3.5
13,CCCCN(CCCC)CC(O)c1ccnc2c1cnc1cc(Cl)ccc12 (centres undefined),2.11
14,CCN(CC)CC(O)c1cc(-c2ccc(Cl)cc2)cc2ccccc12 (centres undefined),3.51
15,CCCCN(CCCC)CC(O)c1cc2c(Cl)cc(Cl)cc2c2ccsc12 (centres undefined),3.2
16,OC(CC1CCCCN1)c1cc(-c2ccc(Cl)cc2)nc2c1ccc1ccccc12 (centres undefined),3.2
17,CCCCN(CCCC)CC(O)c1cc(-c2ccc(C)cc2)nc2c(C)cc(C)cc12 (centres undefined),2.72
18,OC(CC1CCCCN1)c1cc2ccc(Cl)c(Cl)c2c2cc(C(F)(F)F)ccc12 (centres undefined),4.4
19,CCCCNCC(O)c1cc(-c2ccc(C(F)(F)F)cc2)nc(-c2ccc(C(F)(F)F)cc2)c1 (centres undefined),4.16
20,CCCCN(CCCC)CC(O)c1cc(-c2cccc(C(F)(F)F)c2)nc2c(Cl)cc(Cl)cc12 (centres undefined),3.93
21,CCCCN(CCCC)CC(O)c1cc2c(Cl)cc(Cl)cc2c2cc(Cl)ccc12 (centres undefined),3.72
22,OC(CNC12CC3CC(CC(C3)C1)C2)c1cc(-c2ccccc2)nc2c(Cl)cc(Cl)cc12 (centres undefined),2.36
23,OC(CC1CCCCN1)c1cc2cc(C(F)(F)F)cc(C(F)(F)F)c2c2cc(C(F)(F)F)ccc12 (centres undefined),4.47

row,SMILES,log(1/C)
1,CCN(CC)CC(O)c1cc(-c2ccc(Cl)c(Cl)c2)nc2ccc(OC)cc12 (centres undefined),3.15
2,CCCCCN(CCCCC)CC(O)c1cc(-c2ccc(Cl)cc2)nc(-c2ccc(Cl)cc2)c1 (centres undefined),3.13
3,Cc1ccc2nc(C(F)(F)F)cc(C(O)CC3CCCCN3)c2c1 (centres undefined),2.84
4,CCCCN(CCCC)CC(O)c1cc(C(F)(F)c2ccccc2)nc2c(Cl)cccc12 (centres undefined),2.46
5,OC(CC1CCCCN1)c1cc2c(Cl)cc(Cl)cc2c2ccccc12 (centres undefined),3.73
6,CCCCN(CCCC)CC(O)c1c2ccccc2cc2cc(Cl)c(Cl)cc12 (centres undefined),2.89
7,CCCCCCCN(CCCCCCC)CC(O)c1cc2cccc(Cl)c2c2ccccc12 (centres undefined),2.82
8,OC(CC1CCCCN1)c1cc(Nc2ccc(Cl)cc2)nc2ccccc12 (centres undefined),2.52
9,CCCCCCC[N+]([O-])(CCCCCCC)CC(O)c1cc2ccccc2c2cc(Br)ccc12 (centres undefined),3.43
10,OC(CC1CCCCN1)c1cc(Oc2ccc(Cl)cc2)nc2c(Cl)cc(Cl)cc12 (centres undefined),4.16
11,CCCCCCCN(CCCCCCC)CC(O)c1cc2ccc(Br)cc2c2sccc12 (centres undefined),2.67
12,CCCCCCCN(CCCCCCC)CC(O)c1cc2ccccc2c2cc(Br)ccc12 (centres undefined),3.55
13,CCCCN(CCCC)CC(O)c1cc(-c2ccc(C(F)(F)F)cc2)nc(C(F)(F)F)c1 (centres undefined),4.13
14,CCCN(CCC)CC(O)c1cc2cc(C(F)(F)F)cc(C(F)(F)F)c2c2cc(Cl)c(Cl)cc12 (centres undefined),5.18
15,CCCCCCCN(CCCCCCC)CC(O)c1cc2sccc2c2cc(Cl)sc12 (centres undefined),2.64
16,CCCCCCCN(CCCCCCC)CC(O)c1cccc2c1ccc1ccccc12 (centres undefined),2.58
17,CCCCCCCN(CCCCCCC)CC(O)c1cccc2c1ccc1ccc(C(F)(F)F)cc12 (centres undefined),2.34
18,CCCCN(CCCC)CC(O)c1cc(-c2cccc(C(F)(F)F)c2)nc(-c2ccc(Cl)c(Cl)c2)c1 (centres undefined),2.9
19,OC(CC1CCCCN1)c1ccnc2c(C(F)(F)F)cccc12 (centres undefined),2.75
20,CCCCN(CCCC)CC(O)c1cc(Cl)cc2c1-c1ccc(Cl)cc1C2 (centres undefined),3.97
21,CCN(CC)CC(O)c1cc(-c2cccs2)nc2cccc(Br)c12 (centres undefined),2.38
22,CCCCN(CCCC)CC(O)c1cc(-c2ccc(O)cc2)nc2c(Cl)cc(Cl)cc12 (centres undefined),2.66
23,OC(CC1CCCCN1)c1cc(Oc2ccc(Cl)c(Cl)c2)nc2c(Cl)cc(Cl)cc12 (centres undefined),4.1

row,SMILES,log(1/C)
1,CCCNCC(O)c1cc2ccc(C(F)(F)F)cc2c2cc(C(F)(F)F)ccc12 (centres undefined),4.48
2,CCCCN(CCCC)CC(O)c1c(Cl)c(-c2ccc(Cl)cc2)nc2c(Cl)cc(Cl)cc12 (centres undefined),3.87
3,CCCCN(CCCC)C(C)CC(O)c1cc(-c2ccc(Cl)cc2)nc2c(C)cc(C)cc12 (centres undefined),2.42
4,OC(CC1CCCCN1)c1cc(-c2ccc(F)cc2)nc2cc(F)ccc12 (centres undefined),2.32
5,OC(CC1CCCCN1)c1cc(C(F)(F)F)nc2cc(C(F)(F)F)ccc12 (centres undefined),4.05
6,CCCCCCCN(CCCCCCC)CC(O)c1cc2ccc(C(F)(F)F)cc2c2ccccc12 (centres undefined),3.12
7,CCCCN(CCCC)CC(O)c1cc(C(C)(C)C)nc2ccc(C)cc12 (centres undefined),2.53
8,CCN(Cc1cc(N)ccc1OC)CC(O)c1cc2ccccc2c2cc(Br)ccc12 (centres undefined),2.97
9,OC(CC1CCCCN1)c1cc2cc(C(F)(F)F)ccc2c2ccc(Cl)cc12 (centres undefined),4.19
10,CCCCN(CCCC)CC(O)c1cccc2ccc3cccc(Br)c3c12 (centres undefined),2.23
11,CCCCN(CCCC)CC(O)c1cc(-c2cccs2)nc2cccc(Br)c12 (centres undefined),3.06
12,OC(CC1CCCCN1)c1cc(-c2ccc(Cl)cc2)nc(-c2ccc(Cl)cc2)c1 (centres undefined),3.83
13,OC(CC1CCCCN1)c1cc(C(F)(F)F)nc2c1cc(Cl)c1ccccc12 (centres undefined),3.43
14,OC(CC1CCCCN1)c1cc2cc(Cl)c(Cl)cc2c2cc(C(F)(F)F)ccc12 (centres undefined),4.19
15,CCCCCCCN(CCCCCCC)CC(O)c1cc2ccc(I)cc2c2cc(C(F)(F)F)ccc12 (centres undefined),3.55
16,CCCC(CCC)NCC(O)c1cc(/C=C/c2ccc(C(F)(F)F)cc2)nc(/C=C/c2ccc(C(F)(F)F)cc2)c1 (centres undefined),4.24
17,OC(CC1CCCCN1)c1cc2ccc(Br)cc2c2cc(Br)ccc12 (centres undefined),3.31
18,Cc1c(Cl)ccc2c(C(O)CN(CCC(C)C)CCC(C)C)cc(-c3ccc(Cl)cc3)nc12 (centres undefined),3.09
19,CCCCN(CCCC)CC(O)c1cc(/C=C/c2ccc(Cl)cc2)cc(C(F)(F)F)c1 (centres undefined),4.37
20,CCCNCC(O)c1cc(C(F)(F)F)nc2c(C(F)(F)F)cccc12 (centres undefined),2.92
